According to patent US11597706B2, “Compounds and compositions for treating conditions associated with NLRP activity” (Novartis AG, priority 2016, dated 2023):

Each compound was assayed against T1, hNLRP3 (THP-1, IL-1β) (Homo sapiens, UniProt Q96P20) (assay: IL-1β production in PMA-differentiated THP-1 cells stimulated with gramicidin). Details: Table 1, gramicidin 5 μM, IL-1β readout.
T1 construct: THP-1 cells were purchased from the American Type Culture Collection; host or cells: THP-1 cells, PMA-differentiated, stimulated with gramicidin
Format: cell-based
Protocol: IL-1β Production in PMA-Differentiated THP-1 Cells Stimulated With Gramicidin.
Cell culture-THP-1 cells were purchased from the American Type Culture Collection and sub-cultured according to instructions from the supplier. Prior to experiments, cells were cultured in RPMI 1640 containing 10% heat inactivated FBS, penicillin (100 units/ml) and streptomycin (100 μg/ml), and maintained in log phase prior to experimental setup. Prior to the experiment THP-1 were treated with PMA (Phorbol 12-myristate 13-acetate) (10 μg/ml) for 24 hours. The day of the experiment the media was removed and attaching cells were treated with trypsin for 2 minutes, cells were then collected, washed with PBS (phosphate buffer saline), spin down, resuspended in 2% heat inactivated FBS with RPMI at a concentration of 1×10^6 cells/ml, and 100 μl was plated in a 96 well plate. Cells were incubated with compounds for 1 hours and then stimulated with Gramicidin (5 μM) (Enzo) for 2 hours. Cell free supernatant was collected and the production of IL-1β was evaluated by ELISA. Compounds were dissolved in dimethyl sulfoxide (DMSO) and added to the culture medium to achieve desired concentration (e.g. 100, 30, 10, 3, 1, 0.3 or 0.1 μM). A vehicle only control was run concurrently with each experiment. Final DMSO concentration was 1%.
THP-1 cells were purchased from the American Type Culture Collection and sub-cultured according to instructions from the supplier. Prior to experiments, cells were cultured in complete RPMI 1640 (containing 10% heat inactivated FBS, penicillin (100 units/ml) and streptomycin (100 μg/ml)), and maintained in log phase prior to experimental setup. Prior to the experiment THP-1 were treated with PMA (Phorbol 12-myristate 13-acetate) (20 ng/ml) for 16-18 hours. On the day of the experiment the media was removed and adherent cells were detached with trypsin for 5 minutes. Cells were then harvested, washed with complete RPMI 1640, spun down, resuspended in RPMI 1640 (containing 2% heat inactivated FBS, penicillin (100 units/ml) and streptomycin (100 μg/ml). The cells were plated in a 384-well plate at a density of 50,000 cells/well (final assay volume 50 μl). Compounds were dissolved in dimethyl sulfoxide (DMSO) and added to the culture medium to achieve desired concentration (e.g. 100, 33, 11, 3.7, 1.2, 0.41, 0.14, 0.046, 0.015, 0.0051, 0.0017 μM). Cells were incubated with compounds for 1 hour and then stimulated with gramicidin (5 μM) (Enzo) for 2 hours. Cell free supernatant was collected and the production of IL-1β was evaluated by HTRF (cisbio). A vehicle only control was run concurrently with each experiment. Final DMSO concentration was 0.38%.

T1 sequence (Q96P20 whole entry): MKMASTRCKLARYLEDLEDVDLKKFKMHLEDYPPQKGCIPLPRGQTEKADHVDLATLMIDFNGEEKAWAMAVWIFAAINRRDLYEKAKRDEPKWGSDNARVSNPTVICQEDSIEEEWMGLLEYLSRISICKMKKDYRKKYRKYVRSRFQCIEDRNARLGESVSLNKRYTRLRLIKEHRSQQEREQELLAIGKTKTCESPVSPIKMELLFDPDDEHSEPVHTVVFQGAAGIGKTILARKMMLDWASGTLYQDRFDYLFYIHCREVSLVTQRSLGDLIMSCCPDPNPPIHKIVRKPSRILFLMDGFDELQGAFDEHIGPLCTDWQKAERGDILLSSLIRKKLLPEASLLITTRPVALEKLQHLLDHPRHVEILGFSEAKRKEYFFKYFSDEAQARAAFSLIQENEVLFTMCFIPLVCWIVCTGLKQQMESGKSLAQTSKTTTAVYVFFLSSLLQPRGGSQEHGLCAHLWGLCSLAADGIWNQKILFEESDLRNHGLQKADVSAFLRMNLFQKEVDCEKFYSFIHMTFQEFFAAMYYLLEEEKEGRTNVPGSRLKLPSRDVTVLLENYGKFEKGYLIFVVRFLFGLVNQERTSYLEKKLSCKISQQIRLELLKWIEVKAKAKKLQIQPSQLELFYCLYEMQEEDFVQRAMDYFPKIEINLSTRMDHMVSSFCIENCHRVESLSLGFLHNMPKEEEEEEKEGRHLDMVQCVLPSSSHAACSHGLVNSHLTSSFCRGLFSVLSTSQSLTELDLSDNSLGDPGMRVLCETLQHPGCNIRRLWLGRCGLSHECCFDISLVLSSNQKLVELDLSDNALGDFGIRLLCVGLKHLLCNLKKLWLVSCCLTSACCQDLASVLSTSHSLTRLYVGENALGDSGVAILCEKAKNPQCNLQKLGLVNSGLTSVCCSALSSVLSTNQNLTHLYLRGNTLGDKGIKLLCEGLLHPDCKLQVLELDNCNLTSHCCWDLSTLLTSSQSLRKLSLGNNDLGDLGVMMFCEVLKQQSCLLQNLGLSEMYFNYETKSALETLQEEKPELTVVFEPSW

Row | SMILES | IC50
1 | CC(C)(O)c1cc(C#N)cc(S(=O)(=O)NC(=O)Nc2c3c(c(Cl)c4c2CCC4)CCC3)c1 [Compound 110, N-(8-chloro-1,2,3,5,6,7-hexahydros-indacen-4-ylcarbamoyl)-3-cyano-5-(2-hydroxypropan-2-yl)benzenesulfonamide] | < 1000 nM
2 | CC(C)(O)c1cccc(S(=O)(=O)NC(=O)Nc2c3c(c(F)c4c2CCC4)CCC3)c1 [Compound 111, N-(8-fluoro-1,2,3,5,6,7-hexahydros-indacen-4-ylcarbamoyl)-3-(2-hydroxypropan-2-yl)benzenesulfonamide] | < 1000 nM
3 | CC(C)(O)c1cc(C#N)cc(S(=O)(=O)NC(=O)Nc2c3c(c(F)c4c2CCC4)CCC3)c1 [Compound 112, 3-cyano-N-(8-fluoro-1,2,3,5,6,7-hexahydros-indacen-4-ylcarbamoyl)-5-(2-hydroxypropan-2-yl)benzenesulfonamide] | < 1000 nM
4 | CC(C)(O)c1cc(Cl)cc(S(=O)(=O)NC(=O)Nc2c3c(c(F)c4c2CCC4)CCC3)c1 [Compound 113, 3-chloro-N-(8-fluoro-1,2,3,5,6,7-hexahydros-indacen-4-ylcarbamoyl)-5-(2-hydroxypropan-2-yl)benzenesulfonamide] | < 1000 nM
5 | CC(C)(O)c1cc(F)cc(S(=O)(=O)NC(=O)Nc2c3c(c(F)c4c2CCC4)CCC3)c1 [Compound 114, 3-fluoro-N-(8-fluoro-1,2,3,5,6,7-hexahydros-indacen-4-ylcarbamoyl)-5-(2-hydroxypropan-2-yl)benzenesulfonamide] | < 1000 nM
6 | CC(C)c1cccc(C(C)C)c1NC(=O)NS(=O)(=O)c1cc(C#N)cc(C(C)(C)O)c1 [Compound 115, 3-cyano-N-(2,6-diisopropylphenylcarbamoyl)-5-(2-hydroxypropan-2-yl)benzenesulfonamide] | < 1000 nM
7 | CC(C)c1cc(C#N)cc(C(C)C)c1NC(=O)NS(=O)(=O)c1cc(C#N)cc(C(C)(C)O)c1 [Compound 116, 3-cyano-N-(4-cyano-2,6-diisopropylphenylcarbamoyl)-5-(2-hydroxypropan-2-yl)benzenesulfonamide] | < 1000 nM
8 | CC(C)c1cc(F)cc(C(C)C)c1NC(=O)NS(=O)(=O)c1cc(C#N)cc(C(C)(C)O)c1 [Compound 117, 3-cyano-N-(4-fluoro-2,6-diisopropylphenylcarbamoyl)-5-(2-hydroxypropan-2-yl)benzenesulfonamide] | < 1000 nM
9 | CC(C)c1cccc(C(C)C)c1NC(=O)NS(=O)(=O)c1cc(Cl)cc(C(C)(C)O)c1 [Compound 120, 3-chloro-N-(2,6-diisopropylphenylcarbamoyl)-5-(2-hydroxypropan-2-yl)benzenesulfonamide] | < 1000 nM
10 | CC(C)c1cc(F)cc(C(C)C)c1NC(=O)NS(=O)(=O)c1cc(Cl)cc(C(C)(C)O)c1 [Compound 123, 3-chloro-N-(4-fluoro-2,6-diisopropylphenylcarbamoyl)-5-(2-hydroxypropan-2-yl)benzenesulfonamide] | < 1000 nM
11 | CC(C)c1cc(C#N)cc(C(C)C)c1NC(=O)NS(=O)(=O)c1cc(F)cc(C(C)(C)O)c1 [Compound 126] | < 1000 nM
12 | CC(C)c1cc(F)cc(C(C)C)c1NC(=O)NS(=O)(=O)c1cc(F)cc(C(C)(C)O)c1 [Compound 127, 3-fluoro-N-(4-fluoro-2,6-diisopropylphenylcarbamoyl)-5-(2-hydroxypropan-2-yl)benzenesulfonamide] | < 1000 nM
13 | CC(C)(O)c1ccc(F)c(S(=O)(=O)NC(=O)Nc2c3c(cc4c2CCC4)CCC3)c1 [Compound 131, 1-[[2-fluoro-5-(2-hydroxypropan-2-yl)benzene]sulfonyl]-3-(1,2,3,5,6,7-hexahydro-s-indacen-4-yl)urea] | < 1000 nM

Same assay, conditions: Table 2, gramicidin 5 μM, IL-1β readout

Row | SMILES | IC50
14 | CC(C)c1ccc(F)c(C(C)C)c1NC(=O)NS(=O)(=O)c1cc(Cl)cc(C(C)(C)O)c1 [Compound 137, 3-chloro-N-(3-fluoro-2,6-diisopropylphenylcarbamoyl)-5-(2-hydroxypropan-2-yl)benzenesulfonamide] | < 1000 nM
15 | CC(C)c1cc(C#N)cc(C(C)C)c1NC(=O)NS(=O)(=O)c1cc(Cl)cc(C(C)(C)O)c1 [Compound 138, 3-chloro-N-(4-cyano-2,6-diisopropylphenylcarbamoyl)-5-(2-hydroxypropan-2-yl)benzenesulfonamide] | < 1000 nM
16 | CC(C)c1ccc(F)c(C(C)C)c1NC(=O)NS(=O)(=O)c1cccc(C(C)(C)O)c1 [Compound 141, N-(3-fluoro-2,6-diisopropylphenylcarbamoyl)-3-(2-hydroxypropan-2-yl)benzenesulfonamide] | < 1000 nM
17 | CC(C)(O)c1cc(C#N)cc(S(=O)(=O)NC(=O)Nc2c3c(cc4c2CCC4)CCC3)c1 [Compound 142] | < 1000 nM
18 | CC(C)(O)c1cc(C(C)(C)O)cc(S(=O)(=O)NC(=O)Nc2c3c(cc4c2CCC4)CCC3)c1 [Compound 143] | < 1000 nM
19 | CC(C)c1ccc(F)c(C(C)C)c1NC(=O)NS(=O)(=O)c1cc(F)cc(C(C)(C)O)c1 [Compound 144, 3-fluoro-N-(3-fluoro-2,6-diisopropylphenylcarbamoyl)-5-(2-hydroxypropan-2-yl)benzenesulfonamide] | < 1000 nM
20 | CC(C)c1cc(Cl)cc(C(C)C)c1NC(=O)NS(=O)(=O)c1cc(C#N)cc(C(C)(C)O)c1 [Compound 145, N-(4-chloro-2,6-diisopropylphenylcarbamoyl)-3-cyano-5-(2-hydroxypropan-2-yl)benzenesulfonamide] | < 1000 nM
21 | CC(C)(O)c1cc(N2CCOCC2)cc(S(=O)(=O)NC(=O)Nc2c3c(cc4c2CCC4)CCC3)c1 [Compound 146] | < 1000 nM
22 | CC(C)c1cc(C#N)cc(C(C)C)c1NC(=O)NS(=O)(=O)c1cccc(C(C)(C)O)c1 [Compound 147, N-(4-cyano-2,6-diisopropylphenylcarbamoyl)-3-(2-hydroxypropan-2-yl)benzenesulfonamide] | < 1000 nM
23 | CC(C)c1ccc(F)c(C(C)C)c1NC(=O)NS(=O)(=O)c1cc(C#N)cc(C(C)(C)O)c1 [Compound 148, 3-cyano-N-(3-fluoro-2,6-diisopropylphenylcarbamoyl)-5-(2-hydroxypropan-2-yl)benzenesulfonamide] | 1000 to 5000 nM
24 | CC(C)(O)c1cc(-c2ccncc2)cc(S(=O)(=O)NC(=O)Nc2c3c(cc4c2CCC4)CCC3)c1 [Compound 149, N-(1,2,3,5,6,7-hexahydro-sindacen-4-ylcarbamoyl)-3-(2-hydroxypropan-2-yl)-5-(pyridin-4-yl)benzenesulfonamide] | 1000 to 5000 nM
25 | CC(C)c1cc(Cl)cc(C(C)C)c1NC(=O)NS(=O)(=O)c1cc(F)cc(C(C)(C)O)c1 [Compound 150, N-(4-chloro-2,6-diisopropylphenylcarbamoyl)-3-fluoro-5-(2-hydroxypropan-2-yl)benzenesulfonamide] | 1000 to 5000 nM
26 | CC(C)(O)c1cc(-c2ccccc2)cc(S(=O)(=O)NC(=O)Nc2c3c(cc4c2CCC4)CCC3)c1 [Compound 151, N-(1,2,3,5,6,7-hexahydro-sindacen-4-ylcarbamoyl)-5-(2-hydroxypropan-2-yl)biphenyl-3-sulfonamide] | 1000 to 5000 nM
27 | CC(C)c1ccc(F)c(C(C)C)c1NC(=O)NS(=O)(=O)c1cc(-c2ccccc2)cc(C(C)(C)O)c1 [Compound 153, N-(3-fluoro-2,6-diisopropylphenylcarbamoyl)-5-(2-hydroxypropan-2-yl)biphenyl-3-sulfonamide] | 1000 to 5000 nM
28 | CC(C)c1cc(Cl)cc(C(C)C)c1NC(=O)NS(=O)(=O)c1cc(Cl)cc(C(C)(C)O)c1 [Compound 154, 3-chloro-N-(4-chloro-2,6-diisopropylphenylcarbamoyl)-5-(2-hydroxypropan-2-yl)benzenesulfonamide] | 1000 to 5000 nM
29 | CC(C)c1ccc(F)c(C(C)C)c1NC(=O)NS(=O)(=O)c1cc(C(C)(C)O)cc(C(C)(C)O)c1 [Compound 155, N-(3-fluoro-2,6-diisopropylphenylcarbamoyl)-3,5-bis(2-hydroxypropan-2-yl)benzenesulfonamide] | 1000 to 5000 nM
30 | CC(C)c1ccc(F)c(C(C)C)c1NC(=O)NS(=O)(=O)c1cc(N2CCOCC2)cc(C(C)(C)O)c1 [Compound 157, N-(3-fluoro-2,6-diisopropylphenylcarbamoyl)-3-(2-hydroxypropan-2-yl)-5-morpholinobenzenesulfonamide] | 1000 to 5000 nM
31 | COC(=O)c1cc(C(C)C)c(NC(=O)NS(=O)(=O)c2cccc(C(C)(C)O)c2)c(C(C)C)c1 [Compound 158, methyl 4-(3-(3-(2-hydroxypropan-2-yl)phenylsulfonyl)ureido)-3,5-diisopropylbenzoate] | 5000 to 15000 nM
